Where “and” joins values, the source holds several entries; their conditions need not be identical. Identical values can stand only once. Like-named read-outs stand apart in the source and are kept apart here.
Columns and labels:
[1] = system: HCMV; assay: CMV antiviral assay, cell culture based ELISA in human foreskin fibroblast cells; set-up: species or system human cytomegalovirus (HCMV)
Protocol: Compounds are tested for direct antiviral activity against HCMV using a cell culture based assay. An ELISA (enzyme linked immunosorbant assay) format is used as described in W. A. Tatarowicz, N. S. Lurain and K. D. Thompson, J. Virol. Meth., 35:207-215 (1991). Human foreskin fibroblast cells are infected with HCMV at a multiplicity of 0.025 plaque forming units per microtiter plate well for a period of 90 minutes. The virus inocula is removed and a suspension of test compound prepared in tissue culture media is added for a period of 4 days. The growth media is aspirated and replaced with 95% ethanol to allow fixation of virus infected cultures. The ethanol is removed and the wells are washed twice with saline. A solution of 2% dry fat milk, 1% bovine sera albumin prepared in saline is added to wells to allow for non-specific binding of protein material to plastic surfaces for 1 hr. Murine monoclonal antibody prepared in saline directed against the late (65 KD) matrix protein of HCMV is added to test wells for 1 hr. The wells are washed twice and antibody, conjugated with the enzyme horse radish peroxidase, with specificity against murine IgG is added to test wells for 1 hr. Test wells are washed three times with saline. A solution of o-phenylene diamine, a substrate for horse radish peroxidase is added for 15 minutes at which time enzymatic conversion occurs indicating reactivity of the enzyme with its substrate. This conversion is evident as a color reaction which was spectrophoretically monitored at 490 nm. The intensity of the color indirectly reflects the presence of antibody directed against the viral 65 KD matrix antigen. The presence of the viral matrix antigen refects the amount of HCMV replication. Thus, test wells, in which little viral replication has occurred, would have little or no antibody binding and are present with low levels of color. Non-infected wells serve as the assay background control.

[2] = Human betaherpesvirus 5, Fibroblast, antiviral, Table 4, read-out: IC50 (AV)
[3] = antiviral, Table 4, read-out: IC50 (AV)
[4] = Human betaherpesvirus 5, Fibroblast, read-out: CMV Antiviral Assay IC50 (AV), Table 12
[5] = read-out: CMV Antiviral Assay IC50 (AV), Table 12

SMILES	melting point [°C]	% Inh −AV ([1]; Conc 4.00e+000 uM, Table 4)	% Inh −AV ([1]; Conc 2.00e+001 uM, Table 4)	% Inh −AV ([1]; Conc 4.00e+001 uM, Table 4)	IC50 [1, 4] [µM]	other results
N#CCNC(=O)c1ccc2cccnc2c1O [drawing 130]						IC50 ([1]; Human betaherpesvirus 5, Fibroblast, read-out: CMV Antiviral Assay IC50 (AV), Table 7): 3 µM
C[Si](C)(C)c1cc(Cl)c2cccnc2c1O [Example 44, 5-Chloro-7-(trimethylsilyl)-8-quinolinol]	109 to 111	65.0% and 59.0%				IC50 [1, 2]: 2.7 µM
N#Cc1ccc(NC(=O)c2ccc3cccnc3c2O)cc1 [drawing 331]						IC50 ([1]; Human betaherpesvirus 5, Fibroblast, Table 12, read-out: CMV Antiviral Assay IC50 (AV)): 3.9 µM
CC(C)[Si](c1cc(Cl)c2cccnc2c1O)(C(C)C)C(C)C [Example 42]	107 to 108	51.0% and 89.0%	88.0% and 99.0%	92.0% and 99.0%		% Inh −AV ([1]; Conc 8.00e−001 uM, Table 4): 0.0%; IC50 [1, 3]: 5.2 µM
Cc1ccc2c(Cl)cc(S(=O)(=O)NCCc3ccccn3)c(O)c2n1 [drawing 329]					14.6	
C[Si](C)(c1ccccc1)c1cc(Cl)c2cccnc2c1O [Example 45, 5-Chloro-7-(dimethylphenylsilyl)-8-quinolinol]	101 to 103	75.0%	83.0%	89.0%		% Inh −AV ([1]; Conc 8.00e−001 uM, Table 4): 39.0%; IC50 [1, 2]: 1.2 µM
Cc1ccc2c(Cl)cc(S(=O)(=O)NCCCCc3ccccc3)c(O)c2n1 [drawing 328]					3.5	
Cc1ccc2c(Cl)cc(S(=O)(=O)NCCCN3CCOCC3)c(O)c2n1 [drawing 326]					2.5	IC50 [1, 5]: 3.6 µM
CC(C)(C)[Si](C)(C)c1cc(Cl)c2cccnc2c1O [Example 41, 5-Chloro-7-[(1,1-dimethylethyl)dimethylsilyl]-8-quinolinol]	107 to 108	65.0% and 70.0%	86.0% and 76.0%	99.0% and 76.0%		% Inh −AV ([1]; Conc 1.00e+001 uM, Table 4): 92.0%; % Inh −AV ([1]; Conc 2.00e+000 uM, Table 4): 56.0%; % Inh −AV ([1]; Conc 5.00e+001 uM, Table 4): 78.0%; % Inh −AV ([1]; Conc 8.00e+000 uM, Table 4): 78.0%; IC50 [1, 3]: 3.8 µM
O=C(Nc1nc2ccc(Cl)cc2s1)c1ccc2cccnc2c1O [drawing 325]					25.5	
Cc1ccc2c(Cl)cc(S(=O)(=O)NCc3ccccn3)c(O)c2n1 [drawing 327]					14.4	IC50 [1, 5]: 14.1 µM and 9.4 µM
CC(C)(C)[Si](c1ccccc1)(c1ccccc1)c1cc(Cl)c2cccnc2c1O [Example 43, 5-Chloro-7-[(1,1,-dimethylethyl)diphenylsilyl]-8-quinolinol]	133 to 139	77.0% and 88.0%	90.0%	85.0% and 81.0%		% Inh −AV ([1]; Conc 1.00e+001 uM, Table 4): 99.0%; % Inh −AV ([1]; Conc 1.25e+000 uM, Table 4): 87.0%; % Inh −AV ([1]; Conc 2.50e+000 uM, Table 4): 99.0%; % Inh −AV ([1]; Conc 4.00e−001 uM, Table 4): 50.0%; % Inh −AV ([1]; Conc 5.00e+000 uM, Table 4): 99.0%; % Inh −AV ([1]; Conc 8.00e−001 uM, Table 4): 65.0% and 43.0%; IC50 [1, 3]: 0.12 µM and 0.44 µM

Source: patent US6500842B1, “8-hydroxy-7-substituted quinolines as anti-viral agents” (Pharmacia & Upjohn Company, priority 1996, dated 2002)
